Consider two compounds from patent US8623889B2, “Substituted 6,6-fused nitrogenous heterocyclic compounds and uses thereof” (Genentech, Inc., priority 2010, dated 2014).

One test concerns HL-60 cells. As to the kind of experiment: HL-60 cell proliferation assay (CellTiter-Glo). The class given is cell-based. Conditions: 4 days incubation. The text has this: HL-60 cells are a Philadelphia Chromosome Negative (Ph-) cell line that serve as a control for the K-562 proliferation assay. Compounds that exert their activity by inhibition of Abl kinase should not inhibit proliferation of HL-60 cells unless such activity is due to off-target activity. This assay determines the number of viable cells in a culture by quantification of ATP. Promega's CellTiter-Glo® Luminescent Cell Viability Assay (CTG) is the reagent used for this determination. The assay is homogenous. Addition of the CTG reagent results in cell lysis and generation of a luminescent signal through the luciferase reaction. The luminescent signal is proportional to the amount of ATP present. For compounds that interfere with cell division and/or have effects on cell size, the readout is not necessarily proportional to cell number/viability. […] Cytostatic: Luminescence counts should be equivalent to counts obtained from a Day 0 read; and Cytotoxic: Luminescence counts should be equivalent to background. • Seed cells at 20000 cells/well in 20 ul cell plating media into a 384 well cell plate. […] Incubate in humidified CO2 incubator • Day 4a: Add 40 uL of Cell Titer-Glo solution • Day 4b: Incubate CTG reaction • Day 4c: Read luminescence

In a further test the test system is K-562 cells. As to the kind of experiment: K-562 cell proliferation assay (CellTiter-Glo). The class given is cell-based. Particulars: Homo sapiens, K562, 96 h; expected value of assay standard; 4 days incubation; read-out: EC50 to inhibit K-562 cell growth. The text has this: The luminescent signal is proportional to the amount of ATP present.

Each structure is given as a SMILES string.

With `CS(=O)(=O)O.Cc1ccc(NC(=O)c2ccc(CN3CCN(C)CC3)cc2)cc1Nc1nccc(-c2cccnc2)n1` [CAS NO 220127-57-1], the “EC50 to inhibit HL-60 cell growth (in words)” value with HL-60 cells (expected result of assay standard) is given as “Inactive”.

Consider `COC(=O)Nc1nc2ccc(C(=O)c3cccs3)cc2[nH]1` [Nocodazole], for which the EC50 – broadly, the concentration at which the effect is half-maximal – was approximately 40 nM in the test on K-562 cells and approximately 40 nM in the test with HL-60 cells (Homo sapiens, HL-60, 96 h, expected value of assay standard, read-out: EC50 to inhibit HL-60 cell growth).
